Results reported in US11897851B2, “Heterocyclic GLP-1 agonists” (Gasherbrum Bio, Inc., priority 2021, dated 2024).
pEC50: −log10 of the molar value.

Target: T1, GLP-1 Receptor (Homo sapiens, UniProt P43220)
T1 construct: host or cells: HEK293/GLP1R/CRE-LUC (HEK293/CRE-Luc stably expressing the GLP-1 receptor)
Test: GLP-1R agonist cAMP stimulation assay (HEK293/GLP1R/CRE-LUC cells, Cisbio cAMP dynamic 2 kit);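 note: compounds tested in half-log serial dilution, cAMP detected with cAMP-d2 and anti-cAMP cryptate antibody reagents after 1 h at room temperature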
Format: cell-based
Settings: HEK293/CRE-Luc cell line stably expressing the GLP-1 Receptor; 1000 cells/well; 30 min at 37° C.; 0.5 mM IBMX, 0.1% BSA; read-out: GLP1R cAMP Stimulation DR: EC50

T1 sequence (P43220 24-463, species assumed): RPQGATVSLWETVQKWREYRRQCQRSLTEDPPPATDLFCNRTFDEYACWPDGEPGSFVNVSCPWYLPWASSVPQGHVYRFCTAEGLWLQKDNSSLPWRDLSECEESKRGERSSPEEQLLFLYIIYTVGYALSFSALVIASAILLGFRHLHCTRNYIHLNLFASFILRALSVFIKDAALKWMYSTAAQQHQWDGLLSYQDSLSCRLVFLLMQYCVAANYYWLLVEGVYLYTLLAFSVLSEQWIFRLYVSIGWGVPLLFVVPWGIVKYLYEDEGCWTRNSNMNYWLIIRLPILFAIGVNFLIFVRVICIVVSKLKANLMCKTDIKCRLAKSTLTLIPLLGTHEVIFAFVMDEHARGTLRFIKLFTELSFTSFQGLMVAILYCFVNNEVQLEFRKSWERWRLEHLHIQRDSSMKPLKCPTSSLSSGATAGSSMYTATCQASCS

| pEC50 | SMILES |
| --- | --- |
| 9.37 | O=C(O)/C=C/c1cnc(CN2CCC(c3cccc4c3OC[C@@H](c3ccc(Cl)cc3)O4)CC2)n1Cc1ccccc1 [Compound 210a, (R,E)-3-(1-benzyl-2-((4-(2-(4-chlorophenyl)-2,3-dihydrobenzo[b][1,4]dioxin-5-yl)piperidin-1-yl)methyl)-1H-imidazol-5-yl)acrylic acid] |
| 7.82 | Cc1cc(-c2nnc(C(F)(F)F)[nH]2)cnc1CN1CCC(c2cccc3c2OC(C)(c2ccc(Cl)cn2)O3)CC1 (centres unmarked) [Compound 264, 2-({4-[2-(5-chloropyridin-2-yl)-2-methyl-2H-1,3-benzodioxol-4-yl]piperidin-1-yl}methyl)-3-methyl-5-[5-(trifluoromethyl)-4H-1,2,4-triazol-3-yl]pyridine] |
